In experiment [1] the test system is VEGFR2. The following applies: cited from earlier work.
The target of another experiment is T1, KIT (Homo sapiens, UniProt P10721).
T1 construct: purchased Carna Biosciences, Inc. (Kobe, Japan)
The experiment is described as follows: Kinase panel enzyme activity assay (MSA or IMAP), percent inhibition at fixed concentration. Format: biochemical. The procedure: (§1) Kinase assays were performed to evaluate inhibitor activity on VEGFR2 and other kinases using either mobility shift assays (MSA) or immobilized metal ion affinity particle (IMAP) assays at Carna Biosciences, Inc (Kobe, Japan). The panel of kinases assayed comprises all wild-type kinases available for profiling at Carna Biosciences, Inc. For VEGFR2, the same cytoplasmic domain was used as in the SPR binding assay.
(§2) Off-chip MSA was performed by preparing a 4 × substrate/ATP/metal solution using kit buffer (20 mM HEPES, 0.01% Triton X-100, 5 mM DTT, pH 7.5), and a 2 × kinase solution was prepared in assay buffer (20 mM HEPES, 0.01% TritonX-100, 1 mM DTT, pH 7.5). […] A 4 × compound solution and the 4 × substrate/ATP/metal solution, and 2 × kinase solution were mixed and incubated in a 384-well microplate at room temperature for 1 or 5 h, dependent on the kinase. Termination Buffer (QuickScout Screening Assist MSA; Carna Biosciences) was added to the well, and the reaction mixture was applied to the LabChip™ system (Perkin Elmer) to separate and quantitate the product and substrate peptide peaks. The kinase reaction was measured using the product ratio calculated from the peak heights of the product (P) and substrate (S) peptides: [P/(P + S)].
(§3) For the IMAP assays, a 4 × substrate/ATP/metal solution and 2 × kinase solution were prepared using assay buffer (20 mM HEPES, 0.01% Tween 20, 2 mM DTT, pH 7.4). ATP concentrations in the solution were within twofold of the affinity for ATP (KM,ATP) for each individual kinase. Then, the 4 × compound solution, 4 × substrate/ATP/metal solution, and 2 × kinase solution were mixed and incubated in a single well of a polystyrene 384-well black microplate. After incubating for 1 h at room temperature, IMAP-binding reagent (IMAP Screening Express kit; Molecular Devices) was added to the well and incubated for 30 min. The kinase reaction in each well was measured via fluorescence polarization at excitation of 485 nm and emission of 530 nm.
(§4) IC50 values were calculated by fitting a 4-parameter logistic curve to the percentage inhibition values at the tested concentrations.
(§5) To compare the selectivity of rivoceranib and the 10 reference inhibitors, we performed either IMAP assays or off-chip MSA to assess the residual kinase activity of a panel of 270 kinases in the presence of 160 nM or 1600 nM rivoceranib or 1000 nM of reference inhibitor. The 270 kinases represent a broad representation of the more than 500 kinases encoded by the human genome.

Another experiment addresses T2, PDGFRβ (Homo sapiens, UniProt P09619).
T2 construct: purchased Carna Biosciences, Inc. (Kobe, Japan)
The description is as above. Format: biochemical. The procedure: as §1, §2, §3, §4, §5

In another experiment the target is T3, RET (Homo sapiens, UniProt P07949).
T3 construct: purchased Carna Biosciences, Inc. (Kobe, Japan)
T3 sequence (P07949 29-1114): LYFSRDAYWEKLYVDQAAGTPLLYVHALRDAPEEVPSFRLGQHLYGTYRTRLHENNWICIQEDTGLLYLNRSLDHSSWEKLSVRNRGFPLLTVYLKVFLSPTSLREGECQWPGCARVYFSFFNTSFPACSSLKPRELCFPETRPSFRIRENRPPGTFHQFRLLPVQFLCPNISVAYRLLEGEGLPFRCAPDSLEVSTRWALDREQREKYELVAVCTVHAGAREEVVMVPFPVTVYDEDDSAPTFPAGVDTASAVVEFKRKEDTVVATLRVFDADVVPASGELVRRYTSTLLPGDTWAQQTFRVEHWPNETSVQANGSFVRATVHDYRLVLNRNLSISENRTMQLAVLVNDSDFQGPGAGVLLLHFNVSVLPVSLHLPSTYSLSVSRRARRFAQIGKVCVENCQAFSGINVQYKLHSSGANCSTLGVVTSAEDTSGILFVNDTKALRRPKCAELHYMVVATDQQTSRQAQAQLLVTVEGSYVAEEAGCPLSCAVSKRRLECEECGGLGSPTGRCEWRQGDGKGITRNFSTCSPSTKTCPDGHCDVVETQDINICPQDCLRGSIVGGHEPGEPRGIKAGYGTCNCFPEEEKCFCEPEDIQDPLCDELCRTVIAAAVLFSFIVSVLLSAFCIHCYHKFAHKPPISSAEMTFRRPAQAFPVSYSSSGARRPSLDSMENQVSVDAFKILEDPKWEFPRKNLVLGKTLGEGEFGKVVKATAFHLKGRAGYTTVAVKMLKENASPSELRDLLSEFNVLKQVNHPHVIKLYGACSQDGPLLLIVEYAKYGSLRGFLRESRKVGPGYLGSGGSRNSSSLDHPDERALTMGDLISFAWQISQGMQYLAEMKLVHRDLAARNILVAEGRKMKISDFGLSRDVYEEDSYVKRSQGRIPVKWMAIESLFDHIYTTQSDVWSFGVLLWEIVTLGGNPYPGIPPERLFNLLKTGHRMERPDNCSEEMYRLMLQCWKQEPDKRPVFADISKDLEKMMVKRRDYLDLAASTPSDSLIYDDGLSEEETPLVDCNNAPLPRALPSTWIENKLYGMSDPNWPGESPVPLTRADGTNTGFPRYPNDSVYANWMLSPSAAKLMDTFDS
The experiment is described as above. It is filed as biochemical. The procedure:
as §1, §2, §3, §4, §5

The next experiment deals with T4, VEGFR1/FLT1 (Homo sapiens, UniProt P17948).
T4 construct: purchased Carna Biosciences, Inc. (Kobe, Japan)
T4 sequence (P17948 27-1338): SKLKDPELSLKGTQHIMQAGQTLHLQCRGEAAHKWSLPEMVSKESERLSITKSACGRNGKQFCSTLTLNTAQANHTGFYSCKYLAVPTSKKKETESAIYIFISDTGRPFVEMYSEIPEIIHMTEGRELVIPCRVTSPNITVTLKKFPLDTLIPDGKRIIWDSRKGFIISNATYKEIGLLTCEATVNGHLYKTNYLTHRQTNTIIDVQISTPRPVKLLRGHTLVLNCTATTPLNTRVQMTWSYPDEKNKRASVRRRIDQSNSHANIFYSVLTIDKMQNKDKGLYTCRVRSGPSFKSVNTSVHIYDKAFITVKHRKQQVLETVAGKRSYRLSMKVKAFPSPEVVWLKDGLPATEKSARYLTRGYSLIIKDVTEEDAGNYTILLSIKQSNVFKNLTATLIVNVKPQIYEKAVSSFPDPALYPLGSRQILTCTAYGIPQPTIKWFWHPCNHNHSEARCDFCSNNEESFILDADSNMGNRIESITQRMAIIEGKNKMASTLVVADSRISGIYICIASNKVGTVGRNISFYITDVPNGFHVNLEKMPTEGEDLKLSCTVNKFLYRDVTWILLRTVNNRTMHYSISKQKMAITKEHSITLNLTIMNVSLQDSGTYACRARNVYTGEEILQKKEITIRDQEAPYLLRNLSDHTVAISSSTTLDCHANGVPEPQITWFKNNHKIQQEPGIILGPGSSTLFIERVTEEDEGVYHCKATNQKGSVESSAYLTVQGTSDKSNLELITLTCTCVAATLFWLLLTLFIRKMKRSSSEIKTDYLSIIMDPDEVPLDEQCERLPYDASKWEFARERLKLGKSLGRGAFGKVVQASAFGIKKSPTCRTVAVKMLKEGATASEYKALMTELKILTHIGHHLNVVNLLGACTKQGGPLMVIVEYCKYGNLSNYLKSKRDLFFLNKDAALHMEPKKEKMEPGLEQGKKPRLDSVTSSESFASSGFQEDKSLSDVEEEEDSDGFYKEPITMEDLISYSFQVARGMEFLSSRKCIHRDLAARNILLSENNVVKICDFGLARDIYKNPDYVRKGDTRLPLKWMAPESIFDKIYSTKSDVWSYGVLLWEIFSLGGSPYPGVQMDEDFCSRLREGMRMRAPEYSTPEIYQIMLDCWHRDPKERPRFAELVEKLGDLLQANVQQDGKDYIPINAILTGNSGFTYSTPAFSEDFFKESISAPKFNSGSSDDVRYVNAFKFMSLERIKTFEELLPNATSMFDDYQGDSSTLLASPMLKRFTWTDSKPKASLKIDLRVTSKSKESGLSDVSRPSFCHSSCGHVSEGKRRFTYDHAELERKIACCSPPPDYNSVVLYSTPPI
The experiment is described as above. Format: biochemical. The procedure: as §1, §2, §3, §4, §5

A further experiment has as its target T5, VEGFR2/KDR (Homo sapiens, UniProt P35968).
T5 construct: cytoplasmic domain of VEGFR2, encompassing amino acid residue 790 to 1356 (C-terminus); purchased Carna Biosciences, Inc. (Kobe, Japan); host or cells: insect cells
The description is as above. It is filed as biochemical. The procedure:
as §1, §2, §3, §4, §5

The target of another experiment is T6, VEGFR3/FLT4 (Homo sapiens, UniProt P35916).
T6 construct: purchased Carna Biosciences, Inc. (Kobe, Japan)
T6 sequence (P35916 25-1363): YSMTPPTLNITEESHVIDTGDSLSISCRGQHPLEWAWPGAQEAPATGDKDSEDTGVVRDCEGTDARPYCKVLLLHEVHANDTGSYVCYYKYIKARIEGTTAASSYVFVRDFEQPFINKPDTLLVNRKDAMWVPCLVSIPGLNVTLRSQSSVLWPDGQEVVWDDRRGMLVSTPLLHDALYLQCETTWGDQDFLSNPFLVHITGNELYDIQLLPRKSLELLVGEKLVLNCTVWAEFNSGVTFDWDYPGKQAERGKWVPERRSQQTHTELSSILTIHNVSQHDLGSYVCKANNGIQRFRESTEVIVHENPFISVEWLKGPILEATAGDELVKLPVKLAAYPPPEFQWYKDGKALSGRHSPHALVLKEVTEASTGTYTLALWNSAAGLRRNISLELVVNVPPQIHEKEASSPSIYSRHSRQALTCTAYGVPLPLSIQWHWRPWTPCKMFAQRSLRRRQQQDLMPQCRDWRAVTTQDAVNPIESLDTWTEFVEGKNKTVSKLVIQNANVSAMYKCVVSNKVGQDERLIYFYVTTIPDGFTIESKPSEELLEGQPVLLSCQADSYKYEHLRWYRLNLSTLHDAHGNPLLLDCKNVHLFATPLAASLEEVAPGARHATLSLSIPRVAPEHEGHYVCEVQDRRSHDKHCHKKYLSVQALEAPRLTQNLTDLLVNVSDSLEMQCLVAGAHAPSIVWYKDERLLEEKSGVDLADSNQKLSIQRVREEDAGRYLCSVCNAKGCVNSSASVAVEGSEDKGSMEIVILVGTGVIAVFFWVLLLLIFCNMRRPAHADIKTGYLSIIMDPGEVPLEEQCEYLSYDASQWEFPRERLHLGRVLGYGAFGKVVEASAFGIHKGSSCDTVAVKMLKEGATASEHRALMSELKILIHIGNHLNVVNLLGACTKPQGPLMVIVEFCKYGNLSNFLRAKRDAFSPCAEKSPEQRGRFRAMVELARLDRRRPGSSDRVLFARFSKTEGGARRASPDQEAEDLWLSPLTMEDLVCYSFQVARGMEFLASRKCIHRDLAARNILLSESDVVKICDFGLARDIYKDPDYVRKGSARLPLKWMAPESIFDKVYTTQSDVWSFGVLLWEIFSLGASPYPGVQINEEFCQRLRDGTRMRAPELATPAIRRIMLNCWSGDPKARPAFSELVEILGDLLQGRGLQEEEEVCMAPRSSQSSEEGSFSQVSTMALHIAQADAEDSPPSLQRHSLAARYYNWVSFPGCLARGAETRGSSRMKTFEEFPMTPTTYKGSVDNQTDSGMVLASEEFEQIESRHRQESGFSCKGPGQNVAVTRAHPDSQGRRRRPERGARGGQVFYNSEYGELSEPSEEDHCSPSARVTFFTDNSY
Described as above. It is filed as biochemical. The procedure: as §1, §2, §3, §4, §5

Experiment [2] deals with T7, VEGFR2 (Homo sapiens, UniProt P35968). Kind of experiment: VEGFR2 kinase activity, off-chip mobility shift assay (MSA), dose-response.
T7 sequence (P35968 790-1356): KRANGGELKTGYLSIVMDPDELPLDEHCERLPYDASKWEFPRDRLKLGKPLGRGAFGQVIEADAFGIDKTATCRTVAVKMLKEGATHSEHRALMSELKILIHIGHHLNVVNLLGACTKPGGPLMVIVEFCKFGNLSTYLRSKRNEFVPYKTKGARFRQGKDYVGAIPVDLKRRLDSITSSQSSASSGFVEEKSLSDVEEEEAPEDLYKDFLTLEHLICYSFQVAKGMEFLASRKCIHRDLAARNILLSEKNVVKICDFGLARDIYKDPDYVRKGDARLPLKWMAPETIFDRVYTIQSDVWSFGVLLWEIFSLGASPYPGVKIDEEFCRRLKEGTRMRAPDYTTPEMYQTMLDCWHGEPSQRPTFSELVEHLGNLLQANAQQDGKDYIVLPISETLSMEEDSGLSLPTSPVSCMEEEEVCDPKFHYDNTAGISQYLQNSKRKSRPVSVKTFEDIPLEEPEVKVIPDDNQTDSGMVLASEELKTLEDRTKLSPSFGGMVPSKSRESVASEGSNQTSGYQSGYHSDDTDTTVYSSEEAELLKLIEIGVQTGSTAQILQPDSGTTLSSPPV
In experiment [3] the test system is panel of 270 kinases. Kind of experiment: Selectivity across panel of 270 kinases (residual activity radar chart, kinome tree).
The target in experiment [4] is T7, VEGFR2. Kind of experiment: Surface plasmon resonance (Biacore T200) binding of rivoceranib to biotinylated VEGFR2 cytoplasmic domain.
Experiment [5] relates to panel of 270 kinases. More on the design: method as in PMID 24651269, PMID 30381447. The following applies: 1000 nM reference inhibitor, compared among all inhibitors profiled; cited from earlier work.
The mark [6] stands for this setting: SPR, individual replicates 1a, 1b, 2a, 2b.
Setting [7] is: 1000 nM reference inhibitor, panel of 270 kinases.

pIC50, pKd: −log10 of the molar value. “And” between values parts separate entries of the source, which are not always exact repeats. Equal entries are not always repeated. Where two headings read alike, the source gives them in different places.

T5 sequence (P35968 790-1356): as above

Usually pIC50 stands for the negative decadic logarithm of the IC50, by convention in mol/L. With `CNC(=O)c1cc(Oc2ccc(NC(=O)Nc3ccc(Cl)c(C(F)(F)F)c3)c(F)c2)ccn1` [regorafenib], the pIC50 in the experiment on VEGFR2 [1] (read-out: Reported IC50 values (VEGFR2), published literature, ref Wilhelm SM et al., Int J Cancer. 2011) is 8.40.

For `COc1cc2nccc(Oc3ccc(NC(=O)C4(C(=O)Nc5ccc(F)cc5)CC4)cc3)c2cc1OC` [cabozantinib], in the experiment with VEGFR2 [1] (read-out: Reported IC50 values (VEGFR2), published literature, ref Yakes FM et al., Mol Cancer Ther. 2011), the pIC50 was […].

In general, inhibition refers to the relative decrease from the control value, in per cent. What is called pKd is the Kd on a negative log10 scale, so that one unit is a factor of ten. Turning to `N#CC1(c2ccc(NC(=O)c3cccnc3NCc3ccncc3)cc2)CCCC1` [rivoceranib], the inhibition at […] against KIT (rivoceranib 160 nM) was found to be 47.3%; against KIT (rivoceranib 1600 nM), 92.6%; at PDGFRβ (rivoceranib 160 nM), 62.1%; against PDGFRβ (rivoceranib 1600 nM) it was 94.8%; on RET (rivoceranib 160 nM), 71.7%; against RET (rivoceranib 1600 nM), 97.9%. The inhibition at […] at VEGFR1/FLT1 (rivoceranib 160 nM) was 93.3%; against VEGFR1/FLT1 (rivoceranib 1600 nM), 99.5%; against VEGFR2/KDR (rivoceranib 160 nM), 96.1%; on VEGFR2/KDR (rivoceranib 1600 nM), 101%; on VEGFR3/FLT4 (rivoceranib 160 nM), 92.9%; against VEGFR3/FLT4 (rivoceranib 1600 nM), 99.3%. For the same compound, the Percent inhibition on KIT (rivoceranib 1600 nM) came out at 92.58%; at PDGFRβ (rivoceranib 160 nM), 62.11%; at RET (rivoceranib 160 nM), 71.72%; at RET (rivoceranib 1600 nM), 97.89%; at VEGFR1/FLT1 (rivoceranib 160 nM), 93.27%; on VEGFR1/FLT1 (rivoceranib 1600 nM), 99.53%. Further, the Percent inhibition on VEGFR2/KDR (rivoceranib 160 nM) amounted to 96.12%; on VEGFR2/KDR (rivoceranib 1600 nM) it was 100.79%; at VEGFR3/FLT4 (rivoceranib 1600 nM), 99.33%. For the same compound, the negative-log IC50 (pIC50) in the experiment with VEGFR2 [1] (read-out: IC50 for VEGFR2 kinase inhibition in a previous study, ATP 10 µM) was 9.00; at VEGFR2 [2], 7.80. Moreover, the “Overall residual kinase activity across the panel of kinases” value in the experiment on panel of 270 kinases [3] (160 nM and 1600 nM rivoceranib, compared among all inhibitors profiled) is “the greatest residual kinase activity”. Moreover, the pKd on VEGFR2 [4] (KD (binding affinity, KD = kd/ka), SPR, single-cycle kinetics, 22 °C, 1:1 model, based on four replicates) is 8.68 and 8.70 and ~8.70; at VEGFR2 [4] (KD, SPR, individual replicates 1a, 1b, 2a, 2b), 8.51 and 8.74 and 9.00 and 8.48. The kd at VEGFR2 [4] (SPR, geometric average of four replicates) was 0.000807 s⁻¹; on VEGFR2 [4] (setting [6]), 0.000775 s⁻¹ and 0.000557 s⁻¹ and 0.000445 s⁻¹ and 0.0022 s⁻¹. In addition, the ka on VEGFR2 [4] (setting [6]) was 303000 M⁻¹ s⁻¹ and 253000 M⁻¹ s⁻¹ and 445000 M⁻¹ s⁻¹ and 659000 M⁻¹ s⁻¹. The kon on VEGFR2 [4] (read-out: ka, SPR, geometric average of four replicates) was determined as 387000 M⁻¹ s⁻¹.

`COc1cc2nccc(Oc3ccc(NC(=O)Nc4cc(C)on4)c(Cl)c3)c2cc1OC` [tivozanib]: the “Number of additional kinases beyond VEGFR2 inhibited by > 50%” value in the experiment with panel of 270 kinases [3] (setting [7]) was “more than 70”.

In the case of `COc1cc2nccc(Oc3ccc(NC(=O)NC4CC4)c(Cl)c3)c2cc1C(N)=O` [lenvatinib], the negative-log IC50 (pIC50) in the experiment on VEGFR2 [1] (read-out: Reported IC50 values (VEGFR2), published literature, ref Brody T., 2018) is 8.40. Further, in the experiment with panel of 270 kinases [3] (setting [7]), the “Number of kinases inhibited by 50% or more” value came out at 31.

Consider `CCN(CC)CCNC(=O)c1c(C)[nH]c(/C=C2\C(=O)Nc3ccc(F)cc32)c1C` [sunitinib], for which the “Overall residual kinase activity across the panel of kinases” value with panel of 270 kinases [5] is given as “the least residual kinase activity”. The “Number of additional kinases beyond VEGFR2 inhibited by > 50%” value in the experiment with panel of 270 kinases [3] (setting [7]) is reported as 125.

Source of the values: PMC10192158 (Cancer Chemotherapy and Pharmacology, 2023).
